Like-named read-outs stand apart in the source and are kept apart here.

In one data set the test system is Phaedon cochleariae. Briefly: Phaedon cochleariae Larvae - Test (PHAECO spray application). The format is in vivo. From the text:
Phaedon cochleariae—Test; (PHAECO Spray Application)
Solvent: 78 parts by weight of acetone • 1.5 parts by weight of N,N-dimethylformamide Emulsifier: 0.5 parts by weight of alkylarylpolyglycolether
Once dry, the leaf discs are infested with mustard beetle larvae (Phaedon cochleariae).

For a further data set, the system named is Myzus persicae. Description: Myzus persicae - Test (MYZUPE spray application). The format is in vivo. From the text:
Myzus persicae—Test; (MYZUPE Spray Application)
Chinese cabbage (Brassica pekinesis) leaf—disks infected with all instars of the green peach aphid (Myzus persicae), are sprayed with a preparation of the active ingredient at the desired concentration.
100% means that all aphids have been killed; 0% means that none of the aphids have been killed.

Another data set has as its system Spodoptera frugiperda. Description: whole plant or invertebrate. As to the method: Spodoptera frugiperda—Test (SPODFR Spray Application)
Solvent: 78.0 parts by weight acetone • 1.5 parts by weight N,N-dimethylformamide Emulsifier: 0.5 parts by weight alkylarylpolyglycolether
Maize (Zea mais) leaf sections are sprayed with a preparation of the active ingredient of the desired concentration. Once dry, the leaf sections are infested with larvae of the fall armyworm (Spodoptera frugiperda).
After the specified period of time, the mortality in % is determined. 100% means that all caterpillars have been killed and 0% means that none of the caterpillars have been killed.

The subject of the next data set is Tetranychus urticae. Description: Tetranychus urticae - Test; OP-resistant (TETRUR spray application). The format is in vivo. From the text:
Tetranychus urticae—Test; OP-Resistant (TETRUR Spray Application)
French beans (Phaseolus vulgaris) which are heavily infested with all stages of the two spotted spidermite (Tetranychus urticae), are sprayed with a preparation of the active ingredient at the desired concentration.

The mark [1] stands for this setting: Phaedon cochleariae, 144 h, read-out: Mortality in % after 6 days obs.
Setting [2] is: Myzus persicae, 144 h, read-out: Mortality in % after 6 days obs.
The mark [3] stands for this setting: Spodoptera frugiperda, 144 h, read-out: Mortality in % after 6 days obs.
[4] abbreviates: Tetranychus urticae, 48 h, read-out: Mortality in % after 2 days obs.
The mark [5] stands for this setting: Phaedon cochleariae, 48 h, read-out: Mortality in % after 2 days obs.
Where [6] appears, read: Myzus persicae, 24 h, read-out: Mortality in % after 1 day obs.
The mark [7] stands for this setting: Spodoptera frugiperda, 48 h, read-out: Mortality in % after 2 days obs.
Setting [8] is: Tetranychus urticae, 144 h, read-out: Mortality in % after 6 days obs.
Where [9] appears, read: 100 g/ha, single active ingredient, 6 days.
The mark [10] stands for this setting: 0.8 g/ha, single active ingredient, 6 days.
Where [11] appears, read: 4 g/ha, single active ingredient, 6 days.

Regarding `Cc1c(F)c(F)c(COC(=O)[C@@H]2[C@H](/C=C(\Cl)C(F)(F)F)C2(C)C)c(F)c1F` (racemic) [B-3A.43, Tefluthrin], the mortality at 20 g/ha in the data set on Phaedon cochleariae (setting [1]) and in the data set on Tetranychus urticae (setting [4]) was 0% throughout. Moreover, the mortality at 4 g/ha in the data set on Myzus persicae (setting [2]) and with Spodoptera frugiperda (setting [3]) was 0% each time. Moreover, in the data set with Spodoptera frugiperda (setting [3]), the mortality (usually the percentage killed) at 0.8 g/ha was 0%.
With `CC(C)c1ccccc1CN(C(=O)c1c(C(F)F)nn(C)c1F)C1CC1` [A-1, N-cyclopropyl-3-(difluoromethyl)-5-fluoro-N-(2-isopropylbenzyl)-1-methyl-1H-pyrazole-4-carboxamide], the mortality at 100 g/ha in the data set with Phaedon cochleariae (setting [5]), with Phaedon cochleariae (setting [1]), in the data set on Myzus persicae (setting [6]), in the data set with Myzus persicae (setting [2]), in the data set with Spodoptera frugiperda (setting [7]) and with Spodoptera frugiperda (setting [3]) was 0% throughout. For the same compound, the mortality at 100 g/ha with Tetranychus urticae (setting [4]) and in the data set with Tetranychus urticae (setting [8]) was 0% each time.
`CC(C)c1ccc(Cl)cc1CN(C(=O)c1c(C(F)F)nn(C)c1F)C1CC1` [A-5, N-(5-chloro-2-isopropylbenzyl)-N-cyclopropyl-3-(difluoromethyl)-5-fluoro-1-methyl-1H-pyrazole-4-carboxamide]: the mortality at 100 g/ha in the data set with Phaedon cochleariae (Phaedon cochleariae, 48 h, 100 g/ha, read-out: Mortality in % after 2 days obs.) is 0%; in the data set with Phaedon cochleariae (Phaedon cochleariae, 144 h, 100 g/ha, read-out: Mortality in % after 6 days obs.), 0%; in the data set with Myzus persicae (Myzus persicae, 24 h, 100 g/ha, read-out: Mortality in % after 1 day obs.), 0%; with Myzus persicae (Myzus persicae, 144 h, 100 g/ha, read-out: Mortality in % after 6 days obs.) it was 0%; in the data set on Spodoptera frugiperda (setting [7]) it was 0%; with Spodoptera frugiperda (setting [3]), 0%. Further, in the data set on Phaedon cochleariae (Phaedon cochleariae, 48 h, 150 g/ha, read-out: Mortality in % after 2 days obs.), the mortality at 150 g/ha was 0%. Besides, the mortality at 200 g/ha was 0% in the data set with Phaedon cochleariae (Phaedon cochleariae, 144 h, 200 g/ha, read-out: Mortality in % after 6 days obs.); 0% in the data set with Myzus persicae (Myzus persicae, 24 h, 200 g/ha, read-out: Mortality in % after 1 day obs.); 0% in the data set with Myzus persicae (Myzus persicae, 144 h, 200 g/ha, read-out: Mortality in % after 6 days obs.); 0% with Spodoptera frugiperda (setting [7]); 0% with Spodoptera frugiperda (setting [3]); 0% in the data set on Tetranychus urticae (Tetranychus urticae, 144 h, 200 g/ha, single active ingredient, 6 days, read-out: Mortality in % after 6 days obs.).
On to `CC(C)c1ccc(F)cc1CN(C(=O)c1c(C(F)F)nn(C)c1F)C1CC1` [A-7, N-cyclopropyl-3-(difluoromethyl)-5-fluoro-N-(5-fluoro-2-isopropylbenzyl)-1-methyl-1H-pyrazole-4-carboxamide], for which the mortality at 100 g/ha with Phaedon cochleariae (setting [5]), with Phaedon cochleariae (setting [1]), with Myzus persicae (setting [6]), with Myzus persicae (setting [2]), in the data set on Spodoptera frugiperda (setting [7]) and in the data set with Spodoptera frugiperda (setting [3]) was 0% each time. Also, the mortality at 100 g/ha in the data set on Tetranychus urticae (setting [4]) was found to be 0%. The mortality at 150 g/ha with Phaedon cochleariae (setting [5]), in the data set with Spodoptera frugiperda (setting [7]) and in the data set with Tetranychus urticae (setting [4]) was 0% each time. Further, the mortality at 200 g/ha in the data set on Phaedon cochleariae (setting [1]), in the data set with Myzus persicae (setting [6]), with Myzus persicae (setting [2]) and in the data set on Tetranychus urticae (setting [4]) was 0% in each case.
Turning to `CNC(=O)O/N=C/C(C)(C)SC` [B-1A.2, Aldicarb], the entries for the “Mortality in % after 6 days obs.” value in the data set with Phaedon cochleariae (100 g/ha), with Myzus persicae (20 g/ha) and with Spodoptera frugiperda (100 g/ha) were 0%, 80% and 33%, respectively. Besides, the “Mortality in % after 1 day obs.” value in the data set on Myzus persicae (100 g/ha) came out at 0%. In addition, the “Mortality in % after 2 days obs.” value in the data set with Spodoptera frugiperda (100 g/ha) is 0%.
`CS/C(C)=N\OC(=O)N(C)SN(C)C(=O)O/N=C(\C)SC` [B-1A.21, Thiodicarb]: the “Mortality in % after 6 days obs.” value with Myzus persicae (100 g/ha) amounted to 0%; with Spodoptera frugiperda (4 g/ha) it was 0%; in the data set on Spodoptera frugiperda (20 g/ha), 33%; with Tetranychus urticae (setting [9]), 0%.
Consider `CC1(C)[C@H](/C=C(\Cl)C(F)(F)F)[C@@H]1C(=O)O[C@@H](C#N)c1cccc(Oc2ccccc2)c1` [B-3A.12, L-Cyhalothrin], for which the “Mortality in % after 2 days obs.” value in the data set with Phaedon cochleariae (0.8 g/ha) was determined as 67%; in the data set on Tetranychus urticae (0.16 g/ha) it was 0%; in the data set with Tetranychus urticae (0.8 g/ha), 70%. The “Mortality in % after 6 days obs.” value in the data set on Spodoptera frugiperda (0.8 g/ha) is recorded as 83%; in the data set on Tetranychus urticae (setting [10]), 70%.
On to `CN1COCN(Cc2cnc(Cl)s2)/C1=N\[N+](=O)[O-]` [B-4A.7, Thiamethoxam], for which the mortality at 0.8 g/ha came out at 0% in the data set on Phaedon cochleariae (setting [1]) and 70% in the data set on Myzus persicae (setting [2]). The mortality at 4 g/ha in the data set with Myzus persicae (setting [6]) and with Tetranychus urticae (setting [8]) was 0% in each case. In addition, the mortality at 20 g/ha with Tetranychus urticae (setting [4]) came out at 0%.
Turning to `N#CCNC(=O)c1cnccc1C(F)(F)F` [B-9.2, Flonicamid], the “Mortality in % after 6 days obs.” value amounted to 0% in the data set with Phaedon cochleariae (20 g/ha), 80% in the data set with Myzus persicae (20 g/ha) and 0% with Tetranychus urticae (setting [9]). In the data set with Myzus persicae (20 g/ha), the “Mortality in % after 1 day obs.” value was found to be 0%.
Regarding `CCOC(=O)OC1=C(c2cc(C)ccc2C)C(=O)N[C@]12CC[C@@H](OC)CC2` [B-23B.1, Spirotetramat], the mortality at 4 g/ha in the data set on Myzus persicae (setting [2]) came to 70%; with Tetranychus urticae (setting [4]) it was 0%. In addition, the mortality at 20 g/ha in the data set with Myzus persicae (setting [2]) was determined as 70%; in the data set with Spodoptera frugiperda (setting [3]), 0%; in the data set with Tetranychus urticae (setting [4]) it was 0%. The mortality at 0.8 g/ha with Tetranychus urticae (setting [8]) was determined as 70%.
With `CNC(=O)c1cc(Cl)cc(C)c1NC(=O)c1cc(Br)nn1-c1ncccc1Cl` [B-26.1, Chlorantraniliprole (Rynaxypyr)], the entries for the “Mortality in % after 6 days obs.” value in the data set on Phaedon cochleariae (0.8 g/ha), in the data set with Phaedon cochleariae (4 g/ha) and in the data set with Myzus persicae (0.8 g/ha) were 33%, 33% and 0%, respectively. The “Mortality in % after 2 days obs.” value in the data set on Phaedon cochleariae (4 g/ha) was found to be 50%.
For the compound `CC(c1ccc(C(F)(F)F)nc1)S(C)(=O)=NC#N` (centres unmarked) [B-27.27, Sulfoxaflor], the results for the mortality at 4 g/ha in the data set on Phaedon cochleariae (setting [1]), in the data set with Myzus persicae (setting [6]) and in the data set with Tetranychus urticae (setting [8]) were 33%, 0% and 0%, respectively. The mortality at 0.8 g/ha in the data set with Myzus persicae (setting [6]) was determined as 0%.
Take Abamectin [B-6.1]: the “Mortality in % after 6 days obs.” value in the data set with Phaedon cochleariae (0.16 g/ha) was determined as 33%. For the same compound, in the data set with Tetranychus urticae (0.8 g/ha), the “Mortality in % after 2 days obs.” value is on record as 70%.
Turning to Ethiprole [B-2B.1], the “Mortality in % after 6 days obs.” value with Myzus persicae (100 g/ha) worked out at 0%.
With Flubendiamide [B-26.3], the “Mortality in % after 6 days obs.” value with Phaedon cochleariae (4 g/ha) amounted to 0%; with Phaedon cochleariae (20 g/ha) it was 50%; in the data set on Tetranychus urticae (setting [9]), 0%. The “Mortality in % after 2 days obs.” value in the data set with Spodoptera frugiperda (100 g/ha) came out at 67%.
On to Imidacloprid [B-4A.4], for which the “Mortality in % after 6 days obs.” value with Phaedon cochleariae (100 g/ha) was 67%; in the data set with Tetranychus urticae (setting [11]), 0%. The “Mortality in % after 1 day obs.” value is 0% with Myzus persicae (0.8 g/ha), 70% in the data set with Myzus persicae (4 g/ha) and 80% in the data set on Myzus persicae (20 g/ha).
In the case of Methiocarb [B-1A15], the “Mortality in % after 6 days obs.” value in the data set on Phaedon cochleariae (20 g/ha) amounted to 33%; with Spodoptera frugiperda (500 g/ha) it was 33%; in the data set on Tetranychus urticae (setting [9]), 10%. Moreover, the “Mortality in % after 2 days obs.” value in the data set on Spodoptera frugiperda (500 g/ha) and with Tetranychus urticae (500 g/ha) was 0% each time.
Regarding Spinetoram [B-5.1], the “Mortality in % after 6 days obs.” value is recorded as 0% with Phaedon cochleariae (0.16 g/ha), 0% in the data set on Phaedon cochleariae (0.8 g/ha), 0% in the data set on Phaedon cochleariae (4 g/ha) and 70% in the data set with Tetranychus urticae (setting [10]). Also, the “Mortality in % after 2 days obs.” value in the data set on Spodoptera frugiperda (0.032 g/ha) stood at 0%; in the data set with Spodoptera frugiperda (0.8 g/ha), 83%; with Tetranychus urticae (0.8 g/ha), 30%.
Spinosad [B-5.2]: the “Mortality in % after 6 days obs.” value in the data set with Phaedon cochleariae (0.8 g/ha), in the data set on Phaedon cochleariae (4 g/ha) and in the data set on Tetranychus urticae (setting [10]) was 0% each time. Besides, the “Mortality in % after 2 days obs.” value in the data set with Phaedon cochleariae (20 g/ha) turned out to be 50%; in the data set on Spodoptera frugiperda (0.16 g/ha) it was 0%; in the data set on Tetranychus urticae (0.8 g/ha), 0%; in the data set with Tetranychus urticae (4 g/ha) it was 0%; with Tetranychus urticae (20 g/ha), 0%.
With Thiacloprid [B-4A.6], the “Mortality in % after 6 days obs.” value in the data set on Phaedon cochleariae (20 g/ha) stood at 83%; in the data set with Myzus persicae (0.16 g/ha) it was 0%; with Myzus persicae (4 g/ha), 0%; in the data set with Tetranychus urticae (setting [11]) it was 0%. Moreover, the “Mortality in % after 2 days obs.” value in the data set on Phaedon cochleariae (100 g/ha) and in the data set on Tetranychus urticae (100 g/ha) was 0% throughout. For the same compound, in the data set on Myzus persicae (0.8 g/ha), the “Mortality in % after 1 day obs.” value stood at 70%.

These data come from US20140051576A1, “ACTIVE COMPOUND COMBINATIONS COMPRISING A (THIO)CARBOXAMIDE DERIVATIVE AND AN INSECTICIDAL OR ACARICIDAL OR NEMATICIDAL ACTIVE COMPOUND” (priority 2011, published 2014).
